Columns and labels:
[1] = test system: iCasp9-ΔCD19-transduced MSCs; test: In vivo killing of iCasp9-ΔCD19-transduced MSCs in SCID mice (luminescence, qPCR)
[2] = test system: gene-modified allodepleted cells; test: Induction of apoptosis with AP20187 in gene-modified allodepleted cells (annexin V/7-AAD); format: cell-based, human
Procedure: (§1) Suicide gene functionality was assessed by adding a small molecule synthetic homodimerizer, AP20187 (Ariad Pharmaceuticals; Cambridge, Mass.), at 10 nM final concentration the day following CD19 immunomagnetic selection. Cells were stained with annexin V and 7-amino-actinomycin (7-AAD)(BD Pharmingen) at 24 hours and analyzed by flow cytometry. Cells negative for both annexin V and 7-AAD were considered viable, cells that were annexin V positive were apoptotic, and cells that were both annexin V and 7-AAD positive were necrotic. The percentage killing induced by dimerization was corrected for baseline viability as follows: Percentage killing=100%−(% Viability in AP20187-treated cells÷% Viability in non-treated cells).
Cells were maintained in T cell medium containing 50 U/ml IL-2 until 22 days after transduction. A portion of cells was reactivated on 24-well plates coated with […] OKT3 and 1 μg/ml anti-CD28 (Clone CD28.2, BD Pharmingen, San Jose, Calif.) for 48 to 72 hours. CD19 expression and suicide gene function in both reactivated and non-reactivated cells were measured on day 24 or 25 post transduction.
In some experiments, cells also were cultured for 3 weeks post transduction and stimulated with 30G-irradiated allogeneic PBMC at a responder:stimulator ratio of 1:1. After 4 days of co-culture, a portion of cells was treated with 10 nM AP20187. Killing was measured by annexin V/7-AAD staining at 24 hours, and the effect of dimerizer on bystander virus-specific T cells was assessed by pentamer analysis on AP20187-treated and untreated cells.

[3] = test system: iCasp9-transduced MSCs; test: Apoptosis of iCasp9-transduced undifferentiated MSCs in vitro (annexin V-PE/7-AAD); format: cell-based, human; settings: CID 50 nM, 24 hours, FACS example
Procedure: Undifferentiated MSCs. The chemical inducer of dimerization (CID) (AP20187; ARIAD Pharmaceuticals, Cambridge, Mass.) was added at 50 nM to iCasp9-transduced MSCs cultures in complete medium. Apoptosis was evaluated 24 hours later by FACS analysis, after cell harvest and staining with annexin V-PE and 7-AAD in annexin V binding buffer (BD Biosciences, San Diego, Calif.). Control iCasp9-transduced MSCs were maintained in culture without exposure to CID.
The proapoptotic gene product iCasp9 can activated by a small chemical inducer of dimerization (CID), AP20187, an analogue of tacrolimus that binds the FK506-binding domain present in the iCasp9 product. Non-transduced MSCs have a spontaneous rate of apoptosis in culture of approximately 18% (±7%) as do iCasp9-positive cells at baseline (15±6%, P=0.47). Addition of CID (50 nM) to MSC cultures after transduction with iCasp9-ΔCD19 results in the apoptotic death of more than 90% of iCasp9-positive cells within 24 hrs (93±1%, P<0.0001), while iCasp9-negative cells retain an apoptosis index similar to that of non-transduced controls (20±7%, P=0.99 and P=0.69 vs. non-transduced controls with or without CID respectively) (see FIGS. 17A and 70B). […] Apoptosis was evaluated 24 hours later by FACS analysis, after cell harvest and staining with annexin V-PE and 7-AAD. […]

[4] = test system: T cells transduced with these inducible death molecules; settings: inducible Fas or FADD DED; cited from earlier work
[5] = test system: non-transduced cells; test: Viability of non-transduced cells with AP20187; format: cell-based, human
Procedure: as §1
The day following immunomagnetic selection, 10 nM of the chemical inducer of dimerization, AP20187, was added to induce apoptosis, which appeared within 24 hours. […] Killing efficiency after correction for baseline viability was about 92.9%±3.8%. Large-scale CD19 selection produced cells that were killed with similar efficiency as small-scale selection: mean viability with and without AP20187, and percentage killing, in large and small scale were about 3.9%, about 84.0%, about 95.4% (n=3) and about 6.6%, about 79.3%, about 91.4% (n=5) respectively. […]

[6] = test system: EBV-specific and CMV-specific T cells; test: Pentamer analysis of virus-specific T cells after AP20187 treatment of allostimulated cells; format: cell-based, human; settings: 10 nM after 4 days reactivation with allogeneic PBMC
[7] = test system: iCasp9M-transduced EBV-CTLs; test: CID-induced elimination of GFP+ iCasp9M-transduced EBV-CTLs (flow cytometry for GFP); format: cell-based, human
[8] = test system: differentiated progeny of human MSCs expressing iCasp9; test: Apoptosis of differentiated iCasp9-positive MSCs (TUNEL, cell density); format: cell-based; settings: adipocytic differentiation, 50 nM CID, after 24 hours (from 584 cells/mm2)
Procedure: Differentiated MSCs. Transduced MSCs were differentiated as presented above. At the end of the differentiation period, CID was added to the differentiation media at 50 nM. Cells were stained appropriately for the tissue being studied, as presented above, and a contrast stain (methylene azur or methylene blue) was used to evaluate the nuclear and cytoplasmic morphology. In parallel, tissues were processed for terminal deoxynucleotidyl-transferase dUTP nick end labeling (TUNEL) assay as per manufacturer instructions (In Situ Cell Death Detection Kit, Roche Diagnostics, Mannheim, Germany). For each time point, four random fields were photographed at a final magnification of 40× and the images were analyzed with ImageJ software version 1.43o (NIH, Bethesda, Md.). Cell density was calculated as the number of nuclei (DAPI positivity) per unit of surface area (in mm^2). The percentage of apoptotic cells was determined as the ratio of the number of nuclei with positive TUNEL signal (FITC positivity) to the total number of nuclei. Controls were maintained in culture without CID.
After culture in adipocytic differentiation media, iCasp9-positive cells gave rise to adipocytes. After exposure to 50 nM CID, progressive apoptosis was observed as evidenced by an increasing proportion of TUNEL-positive cells. […]

[9] = 10 nM, 24 hours, day following immunomagnetic selection

CC[C@H](C(=O)N1CCCC[C@H]1C(=O)O[C@H](CCc1ccc(OC)c(OC)c1)c1cccc(OCC(=O)NCC(CNC(=O)COc2cccc([C@@H](CCc3ccc(OC)c(OC)c3)OC(=O)[C@@H]3CCCCN3C(=O)[C@@H](CC)c3cc(OC)c(OC)c(OC)c3)c2)CN(C)C)c1)c1cc(OC)c(OC)c(OC)c1 [AP20187]
surviving iCasp9-positive cells, % of the original population ([1]; after one week, qPCR): 0.7%
effect on cells negative for iCasp9 ([1]; luminescence): not affected
AP20187-treated cells remaining viable [2, 9]: about 5.5%±2.5
Killing efficiency after correction for baseline viability [2, 9]: about 92.9%±3.8
killing efficiency ([2]; day 24 or 25, OKT3/aCD28-reactivated cells): ~84.6%±8.0
residual viability following treatment with AP20187 ([2]; day 24 post transduction, 10 nM): 19.6±5.6%
apoptosis / elimination of iCasp9-modified T cells after dimerizer (summary statement) ([2]; in vitro, listed as small-molecule dimerizer): > 90%
annexin positive iCasp9-CD19-positive cells (iCasp pos/CID) [3]: Ninety-three
annexin positive negative population (iCasp neg/CID) [3]: 19%
transduced T cells undergoing apoptosis after administration of CID [4]: Up to 90%
toxicity to non-transduced cells [5]: non-toxic
viability of non-transduced cells with AP20187 ([5]; n=6): about 86%±9
effect on virus-specific T cells [6]: spares (and thereby enriches) viral reactive subpopulations
reduction in mean fluorescence intensity of GFP after CID ([7]; CTLs that survived CID treatment): 70%
further elimination of the surviving GFP+ T cells ([7]; antigenic stimulation followed by a second 10-nM dose of CID): No further elimination
CID sufficient to obtain the maximal deletion effect ([7]; titration, F-Casp9M.I.GFPhigh, survival of GFP+ cells on day 7): 1 nM
GFP+ cells eliminated after a single 10-nM dose of CID ([7]; unselected iCasp9M-transduced CTLs, 5 different donors): 91.3%
cell density after CID [8]: < 14 cells/mm2
